Consider two molecules from patent US20070117770A1, “Human ribosomal DNA (rDNA) and ribosomal RNA (rRNA) nucleic acids and uses thereof” (Cylene Pharmaceuticals, Inc., priority 2005, published 2007).

What all share (assay): Protein kinase inhibition assay
Type in all cases: biochemical

One assay addresses MEK1(h) (Homo sapiens, UniProt Q02750). As to conditions: read-out: percent residual activity of MEK1(h). The method, then:
(§1) Certain compounds were tested for activity in protein kinase inhibition assays. All substrates were dissolved and diluted to working stocks in de-ionized water, apart from histone H1 (10× working stock in 20 mM MOPS pH 7.0), PDKtide (10× working stock in 50 mM Tris pH 7.0) ATF2 (which is typically stored at a 20× working stock in 50 mM Tris pH 7.5, 150 mM NaCl, 0.1 mM EGTA, 0.03% Brij-35, 50% glycerol, 1 mM benzamidine, 0.2 mM PMSF and 0.1% R-mercaptoethanol), KKLNRTLSFAEPG (SEQ ID NO:203) and RRRLSFAEPG (SEQ ID NO:204) (50 mM HEPES pH 7.4) and GGEEEEYFELVKKKK (SEQ ID NO:205) (20 mM MOPS pH 7.0). All kinases were pre-diluted to a 10× working concentration prior to addition into the assay. The composition of the dilution buffer for each kinase is detailed below.
The reaction is initiated by the addition of the MgATP. After incubation for 40 minutes at room temperature, 5 μl of this incubation mix is used to initiate a MAPK2 (m) assay, which is described on page 12 of this book.

The next assay deals with MINK(h) (Homo sapiens, UniProt Q8N4C8). The settings on record: read-out: percent residual activity of MINK(h). The method, then: as §1
MINK(h), sequence (Q8N4C8 whole entry): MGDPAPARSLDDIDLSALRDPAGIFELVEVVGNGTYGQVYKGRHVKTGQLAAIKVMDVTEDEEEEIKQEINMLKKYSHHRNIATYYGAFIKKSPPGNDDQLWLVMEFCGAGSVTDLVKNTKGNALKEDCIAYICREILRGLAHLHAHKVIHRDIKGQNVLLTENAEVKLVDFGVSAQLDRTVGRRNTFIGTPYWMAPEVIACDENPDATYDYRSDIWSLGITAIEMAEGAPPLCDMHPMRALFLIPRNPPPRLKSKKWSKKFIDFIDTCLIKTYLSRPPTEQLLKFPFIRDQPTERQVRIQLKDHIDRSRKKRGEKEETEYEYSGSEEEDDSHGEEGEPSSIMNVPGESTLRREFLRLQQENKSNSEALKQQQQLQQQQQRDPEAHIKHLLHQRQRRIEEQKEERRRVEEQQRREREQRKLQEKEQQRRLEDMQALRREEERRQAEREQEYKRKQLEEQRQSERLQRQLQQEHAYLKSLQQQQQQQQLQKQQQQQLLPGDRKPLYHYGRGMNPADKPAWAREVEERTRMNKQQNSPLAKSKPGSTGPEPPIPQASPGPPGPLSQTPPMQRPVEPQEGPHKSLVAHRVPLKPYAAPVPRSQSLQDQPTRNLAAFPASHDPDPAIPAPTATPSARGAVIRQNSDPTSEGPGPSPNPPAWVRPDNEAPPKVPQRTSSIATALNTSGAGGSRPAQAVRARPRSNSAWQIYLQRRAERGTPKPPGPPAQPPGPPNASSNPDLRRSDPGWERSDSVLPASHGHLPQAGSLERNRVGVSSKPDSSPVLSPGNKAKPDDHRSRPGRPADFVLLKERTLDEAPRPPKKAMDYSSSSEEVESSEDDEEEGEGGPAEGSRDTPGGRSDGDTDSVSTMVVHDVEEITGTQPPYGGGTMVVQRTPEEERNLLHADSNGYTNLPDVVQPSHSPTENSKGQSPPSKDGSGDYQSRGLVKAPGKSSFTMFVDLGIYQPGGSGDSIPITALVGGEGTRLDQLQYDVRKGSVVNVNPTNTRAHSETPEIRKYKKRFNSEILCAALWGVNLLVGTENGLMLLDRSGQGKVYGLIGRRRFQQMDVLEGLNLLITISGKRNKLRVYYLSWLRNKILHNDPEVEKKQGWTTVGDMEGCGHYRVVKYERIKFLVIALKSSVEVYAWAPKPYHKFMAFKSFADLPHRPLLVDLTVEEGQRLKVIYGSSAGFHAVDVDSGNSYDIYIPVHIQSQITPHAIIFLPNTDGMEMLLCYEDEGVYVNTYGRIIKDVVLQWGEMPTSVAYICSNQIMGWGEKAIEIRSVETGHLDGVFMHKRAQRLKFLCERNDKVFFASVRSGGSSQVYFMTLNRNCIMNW
(§2) In a final reaction volume of 25 μl, MINK (h) (5-10 mU) is incubated with 8 mM MOPS pH 7.0, 0.2 mM EDTA, 0.33 mg/ml myelin basic protein, 10 mM MgAcetate and [gamma-33P-ATP] (specific activity approx. 500 cpm/pmol, concentration as required). The reaction is initiated by the addition of the MgATP mix. After incubation for 40 minutes at room temperature, the reaction is stopped by the addition of 5 μl of a 3% phosphoric acid solution. 10 μl of the reaction is then spotted onto a P30 filtermat and washed three times for 5 minutes in 75 mM phosphoric acid and once in methanol prior to drying and scintillation counting.

Another assay concerns the target GSK3α(h) (Homo sapiens, UniProt P49840). The settings on record: read-out: percent residual activity of GSK3α(h). The method, then: as §1
In a final reaction volume of 25 μl, GSK3α (h) (5-10 mU) is incubated with 8 mM MOPS pH 7.0, 0.2 mM EDTA, 20 μM […](p)EDEEE (SEQ ID NO:216) (phospho GS2 peptide), 10 mM MgAcetate and [gamma-33P-ATP] (specific activity approx. 500 cpm/pmol, concentration as required). The reaction is initiated by the addition of the MgATP mix. After incubation for 40 minutes at room temperature, the reaction is stopped by the addition of 5 μl of a 3% phosphoric acid solution. […]

For another assay, the target named is Arg(h) (Homo sapiens, UniProt P42684). As to conditions: read-out: percent residual activity of Arg(h). The method, then:
as §1
as §2, with “μl, Arg” for “μl, MINK”, “EDTA, 50 μM EAIYAAPFAKKK (SEQ ID NO:206),” for “EDTA, 0.33 mg/ml myelin basic protein,”, “10 pi” for “10 μl”

The target of the next assay is HIPK2(h) (Homo sapiens, UniProt Q9H2X6). The settings on record: read-out: percent residual activity of HIPK2(h). The method, then: as §1
as §2, with “HIPK2” for “MINK”, “filtermat” for “filtermat and”

The next assay deals with ROCK-II(r) (Rattus norvegicus, UniProt Q62868). As to conditions: read-out: percent residual activity of ROCK-II(r). The method, then: as §1
ROCK-II(r), sequence (Q62868 whole entry): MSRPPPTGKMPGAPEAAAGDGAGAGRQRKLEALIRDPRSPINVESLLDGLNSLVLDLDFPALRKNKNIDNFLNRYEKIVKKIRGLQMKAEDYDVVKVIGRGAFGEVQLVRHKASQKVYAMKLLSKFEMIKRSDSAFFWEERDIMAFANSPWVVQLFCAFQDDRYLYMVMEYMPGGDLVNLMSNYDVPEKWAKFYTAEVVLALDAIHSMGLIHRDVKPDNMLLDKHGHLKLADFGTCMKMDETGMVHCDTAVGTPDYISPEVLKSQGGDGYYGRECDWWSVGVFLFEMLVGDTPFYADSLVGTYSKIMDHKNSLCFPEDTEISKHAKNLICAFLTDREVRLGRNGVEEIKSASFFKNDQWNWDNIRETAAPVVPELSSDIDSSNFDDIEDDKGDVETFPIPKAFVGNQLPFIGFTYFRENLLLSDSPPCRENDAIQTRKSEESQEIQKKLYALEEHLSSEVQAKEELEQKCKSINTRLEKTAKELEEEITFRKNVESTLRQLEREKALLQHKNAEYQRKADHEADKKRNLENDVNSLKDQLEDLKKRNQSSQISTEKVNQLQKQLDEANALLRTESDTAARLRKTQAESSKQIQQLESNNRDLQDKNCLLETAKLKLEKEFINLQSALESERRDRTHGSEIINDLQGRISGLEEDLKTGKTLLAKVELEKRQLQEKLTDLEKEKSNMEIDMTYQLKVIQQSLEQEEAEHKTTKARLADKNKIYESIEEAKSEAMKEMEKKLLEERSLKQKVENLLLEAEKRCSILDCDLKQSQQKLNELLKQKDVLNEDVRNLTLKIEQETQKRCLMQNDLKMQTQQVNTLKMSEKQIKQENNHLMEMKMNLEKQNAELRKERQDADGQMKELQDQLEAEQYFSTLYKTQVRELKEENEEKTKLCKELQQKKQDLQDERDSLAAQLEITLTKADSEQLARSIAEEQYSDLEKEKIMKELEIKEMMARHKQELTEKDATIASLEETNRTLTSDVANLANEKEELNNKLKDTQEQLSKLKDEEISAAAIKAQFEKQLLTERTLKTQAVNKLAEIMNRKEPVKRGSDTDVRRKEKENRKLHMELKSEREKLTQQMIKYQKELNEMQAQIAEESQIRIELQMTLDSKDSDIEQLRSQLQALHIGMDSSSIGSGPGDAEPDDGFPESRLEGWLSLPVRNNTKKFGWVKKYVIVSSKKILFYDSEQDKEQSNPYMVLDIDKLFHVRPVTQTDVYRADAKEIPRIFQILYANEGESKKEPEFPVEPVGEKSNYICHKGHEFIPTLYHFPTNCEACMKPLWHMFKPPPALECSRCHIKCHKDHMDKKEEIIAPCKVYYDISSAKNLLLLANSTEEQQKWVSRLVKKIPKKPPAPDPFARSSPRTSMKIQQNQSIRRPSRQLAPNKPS
as §2, with “ROCK-II (r)” for “MINK (h)”, “50” for “8”, “Tris” for “MOPS”, “7.5, 0.1” for “7.0, 0.2”, “EGTA, 30 μM […] (SEQ ID NO:222),” for “EDTA, 0.33 mg/ml myelin basic protein,”

The target in another assay is EGFR(h) (Homo sapiens, UniProt P00533). As to conditions: read-out: percent residual activity of EGFR(h). The method, then:
as §1
as §2, with “EGFR” for “MINK”, “10 mM MnCl2, 0.1” for “0.33”, “poly(Glu, Tyr) 4:1,” for “myelin basic protein,”, “Filtermat A” for “P30 filtermat”

EGFR(h), sequence (P00533 25-1210): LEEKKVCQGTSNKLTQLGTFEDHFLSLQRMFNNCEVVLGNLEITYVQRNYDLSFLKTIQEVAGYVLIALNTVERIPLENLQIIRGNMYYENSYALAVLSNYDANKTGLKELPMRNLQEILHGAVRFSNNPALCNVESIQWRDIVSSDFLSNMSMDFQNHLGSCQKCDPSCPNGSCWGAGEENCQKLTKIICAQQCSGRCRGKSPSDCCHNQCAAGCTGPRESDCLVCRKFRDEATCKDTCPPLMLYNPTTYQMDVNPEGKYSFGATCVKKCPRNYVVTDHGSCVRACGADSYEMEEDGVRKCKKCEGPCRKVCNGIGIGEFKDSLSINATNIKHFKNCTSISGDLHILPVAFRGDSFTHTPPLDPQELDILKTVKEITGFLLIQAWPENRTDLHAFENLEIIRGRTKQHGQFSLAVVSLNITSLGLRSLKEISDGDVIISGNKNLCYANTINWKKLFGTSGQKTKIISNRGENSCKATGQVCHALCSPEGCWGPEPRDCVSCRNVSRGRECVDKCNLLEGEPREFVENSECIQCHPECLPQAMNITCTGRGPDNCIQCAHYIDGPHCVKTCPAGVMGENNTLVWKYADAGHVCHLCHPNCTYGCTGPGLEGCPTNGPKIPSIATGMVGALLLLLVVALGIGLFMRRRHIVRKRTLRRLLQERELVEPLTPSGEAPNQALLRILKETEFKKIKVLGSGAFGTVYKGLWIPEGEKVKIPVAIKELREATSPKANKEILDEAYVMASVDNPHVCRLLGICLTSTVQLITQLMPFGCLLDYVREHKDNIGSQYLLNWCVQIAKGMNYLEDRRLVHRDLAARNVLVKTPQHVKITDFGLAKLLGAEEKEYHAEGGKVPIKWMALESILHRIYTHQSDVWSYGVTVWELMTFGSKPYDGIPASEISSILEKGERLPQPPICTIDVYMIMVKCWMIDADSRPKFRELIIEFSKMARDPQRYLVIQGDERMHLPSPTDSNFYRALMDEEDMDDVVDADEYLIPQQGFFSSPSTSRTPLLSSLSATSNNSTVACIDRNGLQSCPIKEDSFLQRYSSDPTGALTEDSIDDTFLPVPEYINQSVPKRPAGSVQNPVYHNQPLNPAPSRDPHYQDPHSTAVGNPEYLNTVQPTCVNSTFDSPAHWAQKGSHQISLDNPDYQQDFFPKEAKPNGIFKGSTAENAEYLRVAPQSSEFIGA
GSK3α(h), sequence (P49840 whole entry): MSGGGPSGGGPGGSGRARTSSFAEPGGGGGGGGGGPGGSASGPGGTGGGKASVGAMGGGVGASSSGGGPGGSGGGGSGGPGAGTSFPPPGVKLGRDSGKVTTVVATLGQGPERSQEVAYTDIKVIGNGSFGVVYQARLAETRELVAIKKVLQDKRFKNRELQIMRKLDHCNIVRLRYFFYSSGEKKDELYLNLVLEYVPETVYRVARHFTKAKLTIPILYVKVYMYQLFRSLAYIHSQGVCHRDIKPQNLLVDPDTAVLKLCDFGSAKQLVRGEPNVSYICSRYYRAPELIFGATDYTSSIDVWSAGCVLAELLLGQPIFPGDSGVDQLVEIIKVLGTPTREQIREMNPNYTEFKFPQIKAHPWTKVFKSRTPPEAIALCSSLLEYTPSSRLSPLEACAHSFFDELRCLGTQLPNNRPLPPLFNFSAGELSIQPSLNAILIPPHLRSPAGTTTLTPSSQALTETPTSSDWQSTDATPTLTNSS
MEK1(h), sequence (Q02750 whole entry): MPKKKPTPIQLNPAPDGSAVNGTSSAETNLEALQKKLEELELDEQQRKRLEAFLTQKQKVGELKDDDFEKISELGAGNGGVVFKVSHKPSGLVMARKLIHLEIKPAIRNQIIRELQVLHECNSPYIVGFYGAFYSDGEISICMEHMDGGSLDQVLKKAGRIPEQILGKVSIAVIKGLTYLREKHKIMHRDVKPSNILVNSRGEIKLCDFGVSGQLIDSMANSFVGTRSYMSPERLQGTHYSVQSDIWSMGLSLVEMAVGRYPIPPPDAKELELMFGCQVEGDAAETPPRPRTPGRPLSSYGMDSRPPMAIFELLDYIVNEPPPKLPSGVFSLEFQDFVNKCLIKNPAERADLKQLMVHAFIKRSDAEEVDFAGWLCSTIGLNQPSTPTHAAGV

For the molecule `CN1CCCC1CCNC(=O)c1cn2c3c(c(N4CCC(c5cnccn5)C4)c(F)cc3c1=O)Oc1cc3ccccc3cc1-2` (centres unmarked) [Compound A-1], the remaining activity at 2.5 µM on MEK1(h) amounted to 87%; on MINK(h), 72%; at GSK3α(h) it was 101%; at Arg(h), 46%; at HIPK2(h), 106%; on ROCK-II(r) it was 48%. For the same molecule, at EGFR(h), the remaining activity at 2.5 µM is 122%.

As to `CC(=O)N1CCN(c2ccc3c(=O)c(C(=O)NCCN4CCCC4)c4n(C)c5ccccc5n4c3n2)CC1` [Compound B-1], the remaining activity at 2.5 µM at MEK1(h) stood at 90%; at MINK(h) it was 97%; on GSK3α(h), 89%; at Arg(h) it was 94%; at HIPK2(h), 111%; on ROCK-II(r), 103%. In addition, the remaining activity at 2.5 µM on EGFR(h) is 117%.
